In patent US6787564B2, “Optically active clausenamides, process of the preparation thereof, pharmaceutical composition containing the same and their medical use” (Institute of Materia Medica, Chinese Academy of Medical …, priority 2002, dated 2004):

What was measured:
[1] = tested on: β-AP (25-35)-treated rats; assay: one trial passive avoidance of β-AP (25-35)-treated rats; format: in vivo
[2] = tested on: A β 25-35 treated rats; assay: Morris water maze, A β 25-35 induced impairment of memory; format: in vivo; conditions: for initial heading angle on the 3th day (in words): (−),(+) clausenamide 8 and 40 mg.kg^−1, piracetam 400 mg·kg^−1; for initial heading angle on the 3th day (in words) / latency for finding the platform, 3th to 5th day: vs A β group; for latency for finding the platform, 3th to 5th day: (−),(+) clausenamide 8 and 40 mg·kg^−1, piracetam 400 mg.kg^−1
From the text: Pathological features of Alzheimer's disease (AD) include extensive neuronal loss and the presence of numerous neurofibrillary tangles and senile plaques in the brain. The senile plaques contain amyloid fibrils derived from a 39-43 amino acids peptide referred to as β-amyloid or A β which can produce neurotoxicity. A β 25-35 poccesses the similar neurotoxicity and ability of self-aggregation as A β 1-42. Administrated aggregated A β 25-35 into rat's lateral cerebral ventricle induced memory impairment in Morris water maze.
With increasing of training days, the initial heading angle became small. On the 3th day, the initial heading angle of A β group was larger than control. […] (see Tab.3)
There are four strategies for finding platform in Morris water maze: random, circle, taxis and line. In the beginning of training the search strategies for finding target is mainly circle and random, with the increasing of training, the percentage of the two strategies declined gradually, Beginning from the 3th day, declining speed in control and (−) clausenamide group was faster than A β,(+) clausenamide and piracetam groups.

[3] = tested on: animals with anisodine-induced memory impairment; assay: step-down test, memory impairment induced by anisodine; format: in vivo; conditions: 500 mg/kg oral once
From the text: (§1) This invention used one trial avoidance task—step-down and step-through tests and water maze to compare the improving memorial effects of (±), (−) clausenamide. The drugs were given orally once to animals before experiment in step-down and step-through tests. The water maze test lasted for 5 days in succession. The results were expressed as latency and errors number.

[4] = tested on: animals; assay: memory in water maze test; format: in vivo; conditions: 500 mg/kg
From the text: as §1

[5] = tested on: animals with anisodine-induced memory impairment; assay: memory impairment induced by anisodine in water maze test; format: in vivo; conditions: anisodine + drug 500 mg/kg
From the text: as §1

[6] = tested on: animals with anisodine-induced memory impairment; assay: step-through test, memory impairment induced by anisodine; format: in vivo; conditions: 500 mg/kg oral once
From the text: as §1

[7] = tested on: animals; assay: nootropic action overall: step-down, step-through and water maze tests; format: in vivo; conditions: oral; Tab.4 to Tab.7
Experimental: This invention used one trial avoidance task—step-down and step-through tests and water maze to compare the improving memorial effects of (±), (−) clausenamide.
The drugs were given orally once to animals before experiment in step-down and step-through tests. The water maze test lasted for 5 days in succession. The results were expressed as latency and errors number.
The effective dose of piracetam was 500 mg.kg^−1.

[8] = tested on: calpain; assay: calpain activity in the cortical and hippocampal tissue; format: in vivo, rats; conditions: without HFS, Nimodipine 2 nmol, mean ± S.D., n = 5; for calpain activity, Cortical tissue: control 1.5 ± 0.2; for calpain activity, Hippocampal tissue: control 1.7 ± 0.5
From the text: (§2) The rats were anaesthetized with urethane carbonate.

[9] = tested on: calcineurin; assay: calcineurin activity in the cortical and hippocampal tissue; conditions: without HFS; Nimodipine 2 nmol; mean ± S.D., n = 5; control 7.8 ± 0.6
From the text: The rats were anaesthetized with urethane carbonate. The recording and stimulating electrodes were made from Teflon coated stainless steel wires. The bipolar stimulating electrode was sterotaxically placed in the entorhinal cortex to stimulate the perforant path, and the evoked potential was extracellular recorded from the dentate gyrus granule cell layer of ipsilateral. The population spike (PS) is served as an indication of granule cell's excitation. Long term potentiation (LTP) was induced by a 200 Hz high frequency stimulation 5×single square wave pulses of 0.2 ms duration. The drug or vehicle (DMSO) were injected into lateral cerebral ventricle in a 5 μl volume over a 5 min period via a Hamilton syringe.

[10] = tested on: BDNF; assay: BDNF protein expression in cortical neurons and hippocampal pyramide cells; format: in vivo, rats; conditions: 8, 40 mg·kg^−1 orally daily for 10 days
[11] = tested on: dentate gyrus granule cells; assay: basal synaptic transmission / LTP in dentate gyrus of hippocampus in anesthetized rats (population spike amplitude); format: in vivo; conditions: icv
From the text: Drugs or vehicle injection were delivered via cannula in the lateral cerebral ventricle at final concentration of 2×10^−6 mol/L. The population spike (PS) amplitude was employed as an indication of the level of excitation of the granular cell population in the dentate gyrus. To obtain this measurement, an evoked response was generated in the dentate gyrus granule cell layer by stimulating the pp at low freguency (0.033 Hz) with. single square wave pulses of 0.15 ms duration The LTP formation must accord the following creteria: The PS amplitude increased is over 30% and this high PS amplitude can persist for 40 min.

[12] = tested on: dentate gyrus of hippocampus; assay: induction of LTP in hippocampal of rat (population spike amplitude); format: in vivo, SD rats; conditions: I.C.V.; means ± SD
From the text: Adult male SD rats were anesthetized to maintain a surgical level. A stainless steel cannula-recording electrode was placed in DG (dentate gyrus) of hippocampus using a stereotaxic instrument. The combination of cannula-recording electrode was constructed by insulating the outside of the cannula, except at the tip and top. In the top noninsulated area, a stainless steel wire was wrapped around the cannula and connected to the amplifier via an amphenol connector. The four pairs optically active clausenamides shown in table 9 was delivered by I.C.V. Responses were evoked via direct stimulation of the performant path (PP) using a stainless steel bipolar stimulating electrode. Constant current stimulation provided by a stimulator was delivered to the stimulating electrode through a Stimulus Isolation Unit.
The stimulating electrode was adjusted until a characteristic EPSP was observed under constant current. The evoked responses were amplified on a series alternating current preamplifier, using a microcomputer, and then stored for off-line analysis using DataWave software. The current intensity that elicited a 50% maximal response in each animal was determined and used for all subsequent stimulation. To measure treatment effects, responses were evoked once every 30 sec throughout the entire experiment, and population spike amplitude(PSA) were calculated.

[13] = tested on: rats; assay: mossy fiber sprouting in fascia dentata and hippocampal CA3 region; format: in vivo; conditions: 8 and 40 mg·kg^−1 orally daily for 10 days; adult rat
From the text: 2. […] This is morphological basis for levoclausenamide to incnease synaptic transmission (see FIGS. 1 and 2).

[14] = tested on: mGlu receptor; assay: effect of mGlu antagonist on LTP in hippocampal DG in vivo; design: species or system rats
From the text: as §2
3. Glutamate, the most abundant excitatory neurotransmitter in the CNS, released from presynaptic site and activated a variety of postsynaptic receptor, and then potentiated synaptic transmission. mGlu R (metabotropic glutamate receptor) indirectly regulates signaling and activats various second messenger cascades.

[15] = β-AP-treated + drug 400 mg/kg, n = 8
[16] = β-AP-treated + drug 8 mg/kg, n = 9
[17] = β-AP-treated + drug 40 mg/kg, n = 9

## NC(=O)CN1CCCC1=O [Piracetam, 2-oxo-1 pyrolidine acetamide]
[1]; [15]
  Number of error, Acquisition: 1.6 ± 0.26
  Number of error, Training: 4.1 ± 1.14
[2]
  initial heading angle on the 3th day (in words): showed no improving effects
  latency for finding the platform, 3th to 5th day: showed no effect
[2]; A β 25-35 + drug at 400 mg/kg
  initial heading angle, training day 1: 92.5 ± 28.9
  initial heading angle, training day 2: 87.3 ± 24.2
  initial heading angle, training day 3: 74.6 ± 23.7
  initial heading angle, training day 4: 62.5 ± 19.6
  initial heading angle, training day 5: 44.5 ± 14.3
[3]; 0.9% Nacl + anisodine 0.9 ± 1.0
  Error number, Step-down: 0.7 ± 0.5
[3]; 0.9% Nacl + anisodine 184 ± 105
  Latencies, Step-down: 180 ± 110 s
[4]; 0.9% Nacl 25.8 ± 18.4
  Lalencies reaching platform, 3rd day: 18.6 ± 9.9 s
[4]; 0.9% Nacl 26.1 ± 38.4
  Lalencies reaching platform, 4th day: 16.7 ± 16.3 s
[4]; N = 10, X ± S.D., 0.9% Nacl 32.4 ± 29.2
  Lalencies reaching platform, Second day: 32.2 ± 22.6 s
[5]
  Errors number: 23.5 ± 25.0
[6]; 0.9% Nacl + anisodine 24.4 ± 59
  Latencies, Step-through: 107 ± 110 s
[6]; N = 10, X ± SD, 0.9% Nacl + anisodine 12.7 ± 4.6
  Error number, Step-through: 4.1 ± 3.2
[7]
  effective dose of piracetam (comparator): 500 mg/kg

## NC(CCCP(=O)(O)O)C(=O)O (stereo not shown) [AP5]
[8]
  calpain activity, Cortical tissue: 1.6 ± 0.4 ΔA595nm/hr/mg protein
  calpain activity, Hippocampal tissue: 1.6 ± 0.6 ΔA595nm/hr/mg protein
[9]
  calcineurin activity, Hippocampal tissue: 8.1 ± 0.7 (μmol Pi)/hr/μ g protein

## (+) clausenamide [reference compound]
[10]
  BDNF protein expression in the cortical neurons and pyramide cells in the hippocampus: slightly increasing effect only at a dose of 40 mg·kg^−1
[1]; [16]
  Number of error, Acquisition: 0.8 ± 0.38
  Number of error, Training: 3.3 ± 0.42
[1]; [17]
  Number of error, Acquisition: 1.1 ± 0.19
  Number of error, Training: 3.9 ± 2.3
[11]; 2×10^−6 mol/L
  PS % at 15′, in comparison with control (vehicle) group: −2.7%
  PS % at 30′, in comparison with before drug: −5.9%
  PS % at 30′, in comparison with control (vehicle) group: −12.0%
  PS % at 45′, in comparison with before drug: −12.9%
  PS % at 45′, in comparison with control (vehicle) group: −20.0%
  PS % at 60′, in comparison with before drug: −14.9%
  PS % at 60′, in comparison with control (vehicle) group: −23.2%
[11]; 2×10^−6 mol/L, control 108 ± 7
  PS amplitude 30′ after drug: 95 ± 9
[11]; 2×10^−6 mol/L, control 110 ± 10
  PS amplitude 45′ after drug: 88 ± 15
[11]; 2×10^−6 mol/L, control 112 ± 7
  PS amplitude 60′ after drug: 86 ± 18
[11]; final concentration 2×10^−6 mol/L, control 110 ± 9
  PS amplitude 15′ after drug: 107 ± 8
[2]
  initial heading angle on the 3th day (in words): showed no improving effects
  latency for finding the platform, 3th to 5th day: showed no effect
[2]; A β 25-35 + drug at 8 mg/kg
  initial heading angle, training day 1: 99.4 ± 31.7
  initial heading angle, training day 2: 93.5 ± 29.6
  initial heading angle, training day 3: 82.1 ± 26.7
  initial heading angle, training day 4: 70.2 ± 21.5
  initial heading angle, training day 5: 59.2 ± 18.3
[2]; A β 25-35 + drug at 40 mg/kg
  initial heading angle, training day 1: 112.4 ± 32.8
  initial heading angle, training day 2: 102.5 ± 28.7
  initial heading angle, training day 3: 84.2 ± 22.5
  initial heading angle, training day 4: 83.1 ± 26.5
  initial heading angle, training day 5: 65.4 ± 20.8
[12]
  PSA (%), 15 min: 90.6 ± 0.3%
  PSA (%), 30 min: 110.1 ± 13.1%
  PSA (%), 60 min: 106.4 ± 4.1%
[13]
  mossy fiber sprouting in the fascia dentate and stratum lucidum: no significant effect

## CC(N)(C(=O)O)c1ccc(C(=O)O)cc1 (racemic) [(±) MCPG, (±)-α-methyl-4-carboxyphenylglycine]
[14]; 10 μmol, icv
  induction of LTP induced by HFS and levoclausenamide: inhibited the induction of LTP
[14]; given 15 min after HFS or levoclausenamide
  established LTP: reversed the established LTP

## COCCOC(=O)C1=C(C)NC(C)=C(C(=O)OC(C)C)C1c1cccc([N+](=O)[O-])c1 (stereo not shown) [Nimodipine]
[8]
  calpain activity, Cortical tissue: 1.7 ± 0.3 ΔA595nm/hr/mg protein
  calpain activity, Hippocampal tissue: 1.8 ± 0.5 ΔA595nm/hr/mg protein
[9]
  calcineurin activity, Hippocampal tissue: 7.7 ± 0.8 (μmol Pi)/hr/μ g protein
